From patent US9751842B2, “Phthalazine derivatives” (Merck Patent GmbH, priority 2013, dated 2017)

Tests used:
Assay type in all cases: biochemical
[1] = target: T1, GST-tagged Tnks-1 (1023-1327 aa) (Homo sapiens, UniProt O95271); test: TNKS1 activity ELISA (autoparsylation); details: activity ELISA, 1 hour at 30° C; read-out: IC50 TNKS1 ELISA
T1 construct: GST-tagged Tnks-1 (1023-1327 aa, prepared in-house); made in house
Protocol: (§1) Description of the TNKS1 and TNKS2 ELISA Assay
(§2) Biochemical Activity Testing of TNKS 1 and 2: Activity ELISA (Autoparsylation Assay)
(§3) For analysis of autoparsylation activity of TNKS 1 and 2 an activity ELISA is performed: In the first step GST tagged TNKS is captured on a Glutathione coated plate. Then the activity assay with biotinylated NAD is performed in the absence/presence of the compounds. During the enzymatic reaction GST tagged TNKS transfers biotinylated ADP-ribose to itself from biotinylated NAD as co-substrate. For the detection streptavidin-HRP conjugate is added that binds to the biotinylated TNKS and is thereby captured to the plates. The amount of biotinylated resp. autoparsylated TNKS is detected with a luminescence substrate for HRP. The level of the luminescence signal correlates directly with the amount of autoparsylated TNKS and therefore with activity of TNKS.
(§4) The activity ELISA is performed in 384 well Glutathione coated microtiter plates (Express capture Glutathione coated plate, Biocat, Heidelberg, Germany). The plates are pre-equilibrated with PBS. Then the plates are incubated with 50 μl 20 ng/well GST-tagged Tnks-1 (1023-1327 aa, prepared in-house), respectively GST-tagged Tnks-2 (873-1166 aa, prepared in-house) in assay buffer (50 mM HEPES, 4 mM Mg-chloride, 0.05% Pluronic F-68, 2 mM DTT, pH 7.7) overnight at 4° C. The plates are washed 3 times with PBS-Tween-20. The wells are blocked by incubation at room temperature for 20 minutes with 50 μl blocking buffer (PBS, 0.05% Tween-20, 0.5% BSA). Afterwards the plates are washed 3 times with PBS-Tween-20. The enzymatic reaction is performed in 50 μl reaction solution (50 mM HEPES, 4 mM Mg-chloride, 0.05% Pluronic F-68, 1.4 mM DTT, 0.5% DMSO, pH 7.7) with 10 μM bio-NAD (Biolog, Life science Inst., Bremen, Germany) as co-substrate in the absence or presence of the test compound (10 dilution concentrations) for 1 hour at 30° C. The reaction is stopped by 3 times washing with PBS-Tween-20. For the detection 50 μl of 20 ng/μl Streptavidin, HRP conjugate (MoBiTec, Göttingen, Germany) in PBS/0.05% Tween-20/0.01% BSA are added and the plates are incubated for 30 minutes at room temperature. After three times washing with PBS-Tween-20 50 μl of SuperSignal ELISA Femto Maximum sensitivity substrate solution (ThermoFisherScientific (Pierce), Bonn, Germany) are added. Following a 1 minute incubation at room temperature luminescence signals are measured with an Envision multimode reader (Perkin Elmer LAS Germany GmbH) at 700 nm. The full value used is the inhibitor-free reaction. The pharmacological zero value used is XAV-939 (Tocris) in a final concentration of 5 μM. The inhibitory values (IC50) are determined using either the program Symyx Assay Explorer® or Condosseo® from GeneData.

[2] = target: T2, GST-tagged Tankyrase-1 (1023-1327 aa) (Homo sapiens, UniProt O95271); test: Tankyrase 1 autoparsylation HTRF enzyme assay; details: HTRF autoparsylation, 90 min at 30° C; read-out: IC50 TNKS1 enzyme assay
T2 construct: GST-tagged Tankyrase-1 (1023-1327 aa)
T2 sequence (O95271 1023-1327): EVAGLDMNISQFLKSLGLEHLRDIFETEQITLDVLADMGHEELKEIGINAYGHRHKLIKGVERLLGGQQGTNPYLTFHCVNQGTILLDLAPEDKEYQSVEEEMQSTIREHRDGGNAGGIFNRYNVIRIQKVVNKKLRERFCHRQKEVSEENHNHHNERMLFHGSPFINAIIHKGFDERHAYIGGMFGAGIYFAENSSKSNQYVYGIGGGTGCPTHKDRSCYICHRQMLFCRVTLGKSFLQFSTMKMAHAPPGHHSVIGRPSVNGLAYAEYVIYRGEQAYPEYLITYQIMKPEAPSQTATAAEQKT
Protocol: Biochemical Activity Testing of Tankyrase 1 and 2: Autoparsylation Assay
The autoparsylation assay is run in two steps: the enzymatic reaction in which GST-tagged Tankyrase-1, resp Tankyrase-2 transferred biotinylated ADP-ribose to itself from biotinylated NAD as co-substrate and the detection reaction where a time resolved FRET between cryptate labelled anti-GST bound to the GST tag of the enzyme and Xlent® labelled-streptavidin bound the biotin-parsylation residue is analysed. The autoparsylation activity was detectable directly via the increase in HTRF signal.
The autoparsylation assay is performed as 384-well HTRF® (Cisbio, Codolet, France) assay format in Greiner low volume nb 384-well microtiter plates and is used for high throughput screen. 250 nM GST-tagged Tankyrase-1 (1023-1327 aa), respectively about 250 nM GST-tagged Tankyrase-2 (873-1166 aa) and 5 μM bio-NAD (Biolog, Life science Inst., Bremen, Germany) as co-substrate are incubated in a total volume of 5 μl (50 mM HEPES, 4 mM Mg-chloride, 0.05% Pluronic F-68, 1.4 mM DTT, 0.5% DMSO, pH 7.7) in the absence or presence of the test compound (10 dilution concentrations) for 90 min at 30° C. The reaction is stopped by the addition of 1 μl 50 mM EDTA solution. 2 μl of the detection solution (1.6 μM SA-Xlent® (Cisbio, Codolet, France), 7.4 nM Anti-GST-K® (Eu-labelled anti-GST, Cisbio, Codolet, France) in 50 mM HEPES, 800 mM KF, 0.1° A. BSA, 20 mM EDTA, 0.1% CHAPS, pH 7.0) are added. After 1 h incubation at room temperature the HTRF is measured with an Envision multimode reader (Perkin Elmer LAS Germany GmbH) at excitation wavelength 340 nm (laser mode) and emission wavelengths 615 nm and 665 nm. The ratio of the emission signals is determined. The full value used is the inhibitor-free reaction. The pharmacological zero value used is XAV-939 (Tocris) in a final concentration of 5 μM. The inhibitory values (IC50) are determined using either the program Symyx Assay Explorer® or Condosseo® from GeneData.

[3] = target: T3, GST-tagged Tnks-2 (873-1166 aa) (Homo sapiens, UniProt Q9H2K2); test: TNKS2 activity ELISA (autoparsylation); details: activity ELISA, 1 hour at 30° C; read-out: IC50 TNKS2 ELISA
T3 construct: GST-tagged Tnks-2 (873-1166 aa, prepared in-house); made in house
T3 sequence (Q9H2K2 873-1166): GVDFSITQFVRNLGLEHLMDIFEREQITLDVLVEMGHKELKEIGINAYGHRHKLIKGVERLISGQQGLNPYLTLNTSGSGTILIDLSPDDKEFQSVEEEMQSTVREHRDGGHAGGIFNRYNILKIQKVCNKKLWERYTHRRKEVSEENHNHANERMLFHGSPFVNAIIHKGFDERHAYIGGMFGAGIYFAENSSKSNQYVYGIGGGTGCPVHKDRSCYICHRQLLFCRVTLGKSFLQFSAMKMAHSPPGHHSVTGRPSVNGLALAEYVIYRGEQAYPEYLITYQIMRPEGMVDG
Protocol: as §1, §2, §3, §4

T1 sequence (O95271 1023-1327): as the sequence (O95271 1023-1327) above

| Structure (SMILES) | IC50 [1] | IC50 [2] | IC50 [3] |
| --- | --- | --- | --- |
| COc1cccc(CC(=O)Nc2nncc3ccccc23)c1 [Compound A2, 2-(3-methoxyphenyl)-N-phthalazin-1-yl-acetamide] | 300 to 3000 nM | 300 to 3000 nM | 300 to 3000 nM |
| COc1ccc(CC(=O)Nc2nncc3ccccc23)cc1 [Compound A3, 2-(4-methoxyphenyl)-N-phthalazin-1-yl-acetamide] | < 300 nM | < 300 nM | < 300 nM |
| O=C(CCC1CCCC1)Nc1nncc2ccccc12 [Compound A15, 3-cyclopentyl-N-phthalazin-1-yl-propionamide] | < 300 nM | < 300 nM | < 300 nM |
| O=C(CCc1ccccc1Cl)Nc1nncc2ccccc12 [Compound A16, 3-(2-chloro-phenyl)-N-phthalazin-1-yl-propionamide] | < 300 nM | < 300 nM | < 300 nM |

Continued, values first:

| IC50 [1] | IC50 [2] | IC50 [3] | Structure (SMILES) |
| --- | --- | --- | --- |
| < 300 nM | < 300 nM | 300 to 3000 nM | O=C(Cc1ccccc1)Nc1nncc2ccccc12 [Compound A1, 2-phenyl-N-phthalazin-1-yl-acetamide] |
| < 300 nM | < 300 nM | < 300 nM | CCOc1ccc(CC(=O)Nc2nncc3ccccc23)cc1 [Compound A4, 2-(4-ethoxyphenyl)-N-phthalazin-1-yl-acetamide] |
| < 300 nM | 300 to 3000 nM | < 300 nM | Cc1cccc2cnnc(NC(=O)Cc3ccccc3)c12 [Compound A18, N-(8-methyl-phthalazin-1-yl)-2-phenyl-acetamide] |
| < 300 nM | 300 to 3000 nM | < 300 nM | COc1ccc(CC(=O)Nc2nncc3cccc(C)c23)cc1 [Compound A20, 2-(4-methoxy-phenyl)-N-(8-methyl-phthalazin-1-yl)-acetamide] |
